Publication PMC5410048, “A retro-inverso cell-penetrating peptide for siRNA delivery” (Journal of Nanobiotechnology, 2017)
Non-standard residues stand in square brackets, D forms with d. Residues, ends and D or L forms follow the SMILES beside them.

How the values were obtained:
[1] = not given; remark: listed apart in the source
[2] = not given; remark: listed apart in the source
[3] = not given; remark: listed apart in the source

| Compound | Tryptophan fluorescence emission maximum, free peptide [nm] | Tryptophan fluorescence emission maximum with siRNA [1] [nm] | Mean size (nm) at 0 h, Nb (%) [2] [nm] | Blue shift of tryptophan fluorescence with excess liposomes [3] [nm] |
| --- | --- | --- | --- | --- |
| H-GLWRALWRLLRSLWRLLWK-OH | 348 | 340 |  |  |
| CC(C)C[C@@H](NC(=O)CN)C(=O)N[C@H](Cc1c[nH]c2ccccc12)C(=O)N[C@H](CCCNC(=N)N)C(=O)N[C@H](C)C(=O)N[C@H](CC(C)C)C(=O)N[C@H](Cc1c[nH]c2ccccc12)C(=O)N[C@H](CCCNC(=N)N)C(=O)N[C@H](CC(C)C)C(=O)N[C@H](CC(C)C)C(=O)N[C@H](CCCNC(=N)N)C(=O)N[C@H](CO)C(=O)N[C@H](CC(C)C)C(=O)N[C@H](Cc1c[nH]c2ccccc12)C(=O)N[C@H](CCCNC(=N)N)C(=O)N[C@H](CC(C)C)C(=O)N[C@H](CC(C)C)C(=O)N[C@H](Cc1c[nH]c2ccccc12)C(=O)N[C@H](CCCCN)C(=O)O (H-G[dL][dW][dR][dA][dL][dW][dR][dL][dL][dR][dS][dL][dW][dR][dL][dL][dW][dK]-OH) |  |  | 30 |  |
| CC(C)C[C@@H](NC(=O)[C@@H](Cc1c[nH]c2ccccc12)NC(=O)[C@@H](CCCNC(=N)N)NC(=O)[C@@H](C)NC(=O)[C@@H](CC(C)C)NC(=O)[C@@H](Cc1c[nH]c2ccccc12)NC(=O)[C@@H](CCCNC(=N)N)NC(=O)[C@@H](CC(C)C)NC(=O)[C@@H](CC(C)C)NC(=O)[C@@H](CCCNC(=N)N)NC(=O)[C@@H](CO)NC(=O)[C@@H](CC(C)C)NC(=O)[C@@H](Cc1c[nH]c2ccccc12)NC(=O)[C@@H](CCCNC(=N)N)NC(=O)[C@@H](CC(C)C)NC(=O)[C@@H](CC(C)C)NC(=O)[C@@H](Cc1c[nH]c2ccccc12)NC(=O)[C@H](N)CCCCN)C(=O)NCC(=O)O (H-[dK][dW][dL][dL][dR][dW][dL][dS][dR][dL][dL][dR][dW][dL][dA][dR][dW][dL]G-OH) | 345 | 340 |  | 10 |
